Assay results taken from publication PMC9147171, “Pharmacokinetic/Pharmacodynamic Evaluation of a New Purine-2,6-Dione Derivative in Rodents with Experimental Autoimmune Diseases” (Pharmaceutics, 2022).

Experiments:
[1] = tested on: LPS-induced endotoxemia in rats; parameters: method as in PMID 29407965; conditions: single IP dose of 50 mg·kg^−1, at 1.5 h post-LPS dosing; cited from earlier work
hrPDE3A = target: T1, hrPDE3A (Homo sapiens, UniProt Q14432); experiment: PDE-Glo catalytic activity assay, PDE3A; assay type: biochemical
T1 construct: purchased SignalChem, Richmond, Canada
Experimental: (§1) The inhibitory activity of compound 34 against hrPDE1B and hrPDE3A (SignalChem, Richmond, Canada) was assessed using the PDE-Glo™ catalytic activity assay (Promega Corporation, Madison, WI, USA). It was performed on 384-well plates according to manufacturer’s instructions with slight modifications. Solutions of both PDEs were prepared by diluting their stock solutions in the PDE-Glo™ Reaction Buffer and aliquots of 6.5 μL were added to the wells. A stock solution of the tested compound was prepared in DMSO at a concentration of 10 mM and serially diluted with the same solvent. The obtained solutions were further diluted with PDE-Glo™ Reaction Buffer (1:5, v/v) and aliquots of 1 μL were transferred to the respective wells. Then, the mixture was incubated for 10 min at 30 °C on a heated plate shaker (Grant Instruments, Cambridge, United Kingdom). The reaction was started by the addition of 2.5 μL of a 0.2 μM cAMP solution to each well and the plate was incubated for 10 min at 30 °C on a heated plate shaker. Moreover, for each series, respective control reactions were performed: no-substrate, no-enzyme negative control reactions; no-enzyme positive control reactions containing substrate; and no-inhibitor positive control reactions containing both the substrate and PDE. After incubation, the reaction was stopped by adding 2.5 μL of the PDE-Glo™ Termination Buffer. A volume of 2.5 μL of the PDE-Glo™ Detection Buffer was transferred to each well and the plate was incubated for 20 min at room temperature. Finally, an aliquot of 10 μL of the PDE-Glo Kinase® Reagent was added to the wells. The plate was incubated for 10 min at room temperature and luminescence was measured with a luminometer (BMG Labtech, Ortenberg, Germany). For each inhibitor concentration, four independent measurements were performed. The resulting data were expressed as percent of an uninhibited control and plotted against the inhibitor concentration. The IC50 values were estimated by nonlinear regression using ADAPT5 software (BMSR, Los Angeles, CA, USA).

PDE7A [2] = experiment: PDE inhibition assay, PDE7A (previous investigations); assay type: biochemical; conditions: ratio of IC50 values, vs GRMS-55
PDE4B = experiment: PDE inhibition assay, PDE4B (previous investigations); assay type: biochemical; conditions: ratio of IC50 values, vs GRMS-55
hrPDE1B = target: T2, hrPDE1B (Homo sapiens, UniProt Q01064); experiment: PDE-Glo catalytic activity assay, PDE1B; assay type: biochemical
T2 construct: purchased SignalChem, Richmond, Canada
Experimental: as §1

PDE7A [3] = conditions: read-out: IC50 (µM) Against PDE Isoform PDE7A; cited from earlier work
[4] = tested on: collagen-induced arthritis (CIA) in rats; experiment: Collagen-induced arthritis (CIA) in rats, PK/PD arthritis progression model; assay type: in vivo, female Lewis rats
Experimental: Female Lewis rats were subcutaneously injected at the base of the tail with the emulsion prepared according to the protocol supplied by Chondrex, Inc. (Redmond, WA, USA) at days 0 and 7 of the experiment. To obtain the emulsion, porcine collagen type II (Chondrex, Inc.) (2 mg/mL) in 0.05 M acetic acid was emulsified with incomplete Freund’s adjuvant (Sigma-Aldrich, St. Louis, MO, USA) using a homogenizer with a small blade (LabGen 125, Cole-Parmer, Vernon Hills, IL, USA). On day 20, the animals that developed symptoms of arthritis, i.e., paw swelling above 150% of day 0, were randomly divided into two groups: the control group receiving vehicle alone (n = 6) and the study group treated with the investigated compound at a dose of 20 mg·kg^−1, IP once daily for 21 days (n = 6). Relative paw edema of arthritic rats was measured using a digital caliper according to the procedure described by Earp et al. up to 40 days after the first immunization and then the animals were sacrificed. In addition, the body weight of animals was monitored. After randomization on day 20, using the Mann–Whitney U test, it was verified that there is no significant difference in paw size between the groups.
A previously developed PK/PD model of arthritis progression in rats was utilized in this study (Figure 2). The model was described in detail in our previous publication. Originally, this model was used to assess and compare the effects of a PDE4-selective inhibitor rolipram and two non-selective PDE inhibitors, namely GRMS-55 and lisofylline in CIA in female Lewis rats.
Briefly, the model assumes that PDE inhibitors act by suppressing the production of a precursor of arthritis progression. This is in line with the actual mechanism of anti-inflammatory action of PDE inhibitors that exert their effects by inhibiting the transcription of pro-inflammatory mediators, which participate in the arthritis development. […] Therefore, it was feasible to compare the potency of compound 34 and other PDE inhibitors that were evaluated in our previous study. […]

[5] = ratio of IC50 values, vs GRMS-55

T2 sequence (Q01064 whole entry): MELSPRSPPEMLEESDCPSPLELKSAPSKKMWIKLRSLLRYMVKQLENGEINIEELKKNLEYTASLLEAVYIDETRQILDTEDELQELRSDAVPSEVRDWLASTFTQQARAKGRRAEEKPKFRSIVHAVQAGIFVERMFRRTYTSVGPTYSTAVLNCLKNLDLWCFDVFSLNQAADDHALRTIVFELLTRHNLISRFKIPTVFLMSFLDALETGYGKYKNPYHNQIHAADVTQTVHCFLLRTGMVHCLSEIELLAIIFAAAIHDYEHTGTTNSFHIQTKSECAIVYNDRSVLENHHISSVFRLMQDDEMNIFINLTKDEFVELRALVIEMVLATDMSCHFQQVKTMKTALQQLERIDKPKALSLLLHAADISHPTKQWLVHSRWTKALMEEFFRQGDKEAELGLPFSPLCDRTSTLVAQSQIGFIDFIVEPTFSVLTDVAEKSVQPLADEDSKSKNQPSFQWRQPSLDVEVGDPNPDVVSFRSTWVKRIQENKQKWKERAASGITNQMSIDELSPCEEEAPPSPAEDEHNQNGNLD
T1 sequence (Q14432 whole entry): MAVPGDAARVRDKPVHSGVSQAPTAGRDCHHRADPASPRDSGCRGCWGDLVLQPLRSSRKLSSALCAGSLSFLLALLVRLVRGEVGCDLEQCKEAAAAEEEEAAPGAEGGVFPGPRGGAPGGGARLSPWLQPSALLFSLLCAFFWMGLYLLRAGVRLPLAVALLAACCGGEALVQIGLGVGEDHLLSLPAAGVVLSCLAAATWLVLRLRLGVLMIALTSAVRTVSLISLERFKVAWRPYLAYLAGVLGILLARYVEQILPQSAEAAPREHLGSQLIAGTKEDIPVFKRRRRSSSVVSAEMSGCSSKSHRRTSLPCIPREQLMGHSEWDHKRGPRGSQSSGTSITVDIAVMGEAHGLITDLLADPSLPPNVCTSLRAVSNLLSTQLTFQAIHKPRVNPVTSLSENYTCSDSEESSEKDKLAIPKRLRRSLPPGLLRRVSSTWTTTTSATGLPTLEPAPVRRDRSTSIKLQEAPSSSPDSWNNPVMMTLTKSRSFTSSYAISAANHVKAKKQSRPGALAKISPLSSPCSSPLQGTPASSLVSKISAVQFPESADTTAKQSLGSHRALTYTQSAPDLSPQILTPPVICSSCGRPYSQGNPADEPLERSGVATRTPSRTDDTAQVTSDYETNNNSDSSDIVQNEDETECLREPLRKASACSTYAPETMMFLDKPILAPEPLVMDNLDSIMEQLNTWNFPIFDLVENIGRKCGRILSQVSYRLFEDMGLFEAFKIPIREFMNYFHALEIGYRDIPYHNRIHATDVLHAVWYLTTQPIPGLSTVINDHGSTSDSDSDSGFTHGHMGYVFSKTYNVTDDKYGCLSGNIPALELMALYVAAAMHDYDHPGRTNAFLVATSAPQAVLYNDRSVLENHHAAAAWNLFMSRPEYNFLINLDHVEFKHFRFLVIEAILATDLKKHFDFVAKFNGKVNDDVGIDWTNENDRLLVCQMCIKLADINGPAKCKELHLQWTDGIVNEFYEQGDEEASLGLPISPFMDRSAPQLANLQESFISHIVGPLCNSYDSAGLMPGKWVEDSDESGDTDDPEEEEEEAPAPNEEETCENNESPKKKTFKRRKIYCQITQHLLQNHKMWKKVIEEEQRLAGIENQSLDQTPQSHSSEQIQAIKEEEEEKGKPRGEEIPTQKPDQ

## Cn1c(=O)c2c(nc(NCCc3ccccc3)n2CCCC(=O)NN=Cc2ccc(O)c(O)c2O)n(C)c1=O [Compound 34, 4-(1,3-dimethyl-2,6-dioxo-8-(phenethylamino)-2,3,6,7-tetrahydro-1H-purin-7-yl)-N′-(2,3,4-trihydroxybenzylidene)butanehydrazide]
[1]
  reduction of maximum plasma TNFα concentrations: 84%
hrPDE3A; human recombinant PDE3A, CV% in brackets, read-out: IC50 (µM) Against PDE Isoform (CV%) PDE3A
  IC50: 0.78 µM
hrPDE3A; [5]
  times more potent than GRMS-55 in inhibiting PDE3A: 17 times
hrPDE3A; ratio of IC50 values, vs milrinone
  inhibitory activity against PDE3A, times lower compared to milrinone: about 4 times
PDE7A [2]
  times more potent as a PDE7A inhibitor compared to GRMS-55: about two
PDE4B
  times more active as a PDE4B inhibitor compared to GRMS-55: 19 times
hrPDE1B; human recombinant PDE1B, CV% in brackets, read-out: IC50 (µM) Against PDE Isoform (CV%) PDE1B
  IC50: 0.21 µM
hrPDE1B; [5]
  times more potent than GRMS-55 in inhibiting PDE1B: 12 times
hrPDE1B; ratio of IC50 values, vs vinpocetine
  inhibitory activity against PDE1B, times higher than that of vinpocetine: around 36 times
PDE7A [3]
  IC50: 3.2 µM
[4]; 20 mg·kg^−1 IP once daily for 21 days
  Relative body weight, experimental vs control group: not significantly different
[4]; PK/PD model, rolipram value from ref 28
  IC50_Paw in suppressing paw edema, times lower than that for rolipram: 10 times
[4]; same PK/PD model, GRMS-55 value from ref 28
  IC50_Paw, times lower than that for GRMS-55: around 260 times
